Read-outs that look alike come from different tables or passages of the source. Values belong to the compound of their own block, whether it stands above or below them.
Experiments:
[1] = target: T1, 42 kD protein found in the cerebral spinal fluid from Alzheimer's disease patients (Homo sapiens, UniProt P15104); test: Photoaffinity labeling (photoinsertion) of the 42 kD protein in cerebral spinal fluid from Alzheimer's disease patients; format: binding
T1 construct: 42 kD protein found in the cerebral spinal fluid from Alzheimer's disease patients; from tissue; host or cells: cerebral spinal fluid of Alzheimer's disease patients
Method: Each assay was performed on 15 μl of cerebral spinal fluid. Although the amount of cerebral spinal fluid tested remained constant for each experiment, the protein concentration of each sample varied to some degree.
Each cerebral spinal fluid sample was photolabeled with [^32 P]8N3 ATP to identify the 42,000 Mr protein. The cerebral spinal fluid sample was comprised of cerebral spinal fluid, buffer, and water. The photoprobes used in each experiment were prepared by the inventor according to the procedures disclosed by Potter and Haley in Meth. in Enzymol., 91:613-633 (1983). Probes were also available commercially through ICN Radiochemicals 2727 Campus Drive, Irvine, Calif. 92715.
(§1) In each experiment, photoprobe was added to the cerebral spinal fluid sample and vortexed for 6 seconds. Each treated sample was then allowed to mix for an additional 24 seconds at room temperature before exposure to ultraviolet (UV) light.
(§2) The treated samples were placed on ice and exposed to UV light for 45 seconds. The UV light source, a hand-held UV lamp with an intensity of 6200 μW/cm^2, was positioned 1 cm from the sample. The UV activation of the photoprobe labeled samples was always conducted at 0° C.
(§3) Each sample was fractionated by 10% SDS-PAGE, run over a period of 21/2 to 3 hours, with constant amperage of 35 mA and an initial voltage of 140 volts. Since all of the proteins were very well separated on a 10% gel, a gradient was not necessary.
(§4) The quantity of protein, as well as the amount of the radioactivity incorporated into each protein, was quantified by densitometric scans of the exposed X-ray film, or of the stained gel, or by liquid scintillation spectrometry of the protein band excised from the gel. Significance was determined by analysis of variance at a rho level below […].
(§5) 2. Purified GS and the 42 kD protein found in the cerebral spinal fluid from Alzheimer's disease patients had the same approximate saturation and Kd values for binding ATP, 8-azido-ATP and 2-azido-ATP. […] Therefore, both GS and the 42 kD protein in the cerebral spinal fluid from Alzheimer's disease patients had the same nucleotide binding properties.

[2] = target: T2, Purified GS (glutamine synthetase) (Homo sapiens, UniProt P15104); test: Photoaffinity labeling (photoinsertion) of purified glutamine synthetase; format: binding, sheep
T2 construct: purified from sheep brain; purchased Sigma; host or cells: sheep brain
Method: as §1, §2, §3, §4
(§6) 1. Purified GS (purchased from Sigma, purified from sheep brain) comigrated on SDS-PAGE identically with the 42,000 Mr protein in the cerebral spinal fluid from Alzheimer's disease patients.
as §5
(§7) Purified glutamine synthetase from sheep brain was photolabeled by the above-described method, but under various ionic conditions.

[3] = tested on: T3, Purified GS (glutamine synthetase); test: as above; format: binding, sheep; conditions: purified GS
T3 construct: purified from sheep brain; purchased Sigma; host or cells: sheep brain
Method: as §1, §2, §3, §4, §6, §5, §7

glutamine synthetase = test: Enzymatic activity of glutamine synthetase; format: biochemical, sheep; conditions: 10 μM

T2 sequence (P15104 whole entry): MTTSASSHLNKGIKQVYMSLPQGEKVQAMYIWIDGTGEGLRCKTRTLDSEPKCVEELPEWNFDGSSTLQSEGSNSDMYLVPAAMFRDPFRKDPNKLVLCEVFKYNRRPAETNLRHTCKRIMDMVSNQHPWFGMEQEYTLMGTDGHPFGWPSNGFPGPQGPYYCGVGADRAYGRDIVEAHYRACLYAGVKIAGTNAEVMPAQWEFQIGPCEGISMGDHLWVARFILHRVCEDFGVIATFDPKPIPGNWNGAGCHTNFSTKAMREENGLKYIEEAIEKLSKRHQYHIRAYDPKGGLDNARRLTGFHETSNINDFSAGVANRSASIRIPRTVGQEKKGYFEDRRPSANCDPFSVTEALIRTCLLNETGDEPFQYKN
T1 sequence (P15104 2-373 limits assumed): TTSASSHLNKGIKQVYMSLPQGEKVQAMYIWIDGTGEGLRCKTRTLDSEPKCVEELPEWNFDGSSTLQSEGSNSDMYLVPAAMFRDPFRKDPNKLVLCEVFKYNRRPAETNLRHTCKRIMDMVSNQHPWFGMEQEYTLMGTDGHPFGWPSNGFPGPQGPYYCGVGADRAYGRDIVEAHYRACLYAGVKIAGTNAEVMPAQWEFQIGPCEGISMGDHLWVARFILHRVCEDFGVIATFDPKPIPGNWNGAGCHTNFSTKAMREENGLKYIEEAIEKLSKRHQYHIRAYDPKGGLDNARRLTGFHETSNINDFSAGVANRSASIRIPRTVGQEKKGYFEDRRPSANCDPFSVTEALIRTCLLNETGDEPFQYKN
T3 sequence (P15104 whole entry): as the sequence (P15104 whole entry) above

amount of photo-incorporation on a mole to mole basis relative to [γ32P]8N3 ATP ([1]; 42 kD protein in AD CSF): greater | saturation of photoinsertion ([1]; 42 kD protein in AD CSF): 40 to 50 µM | Kd ([1]; 42 kD protein in AD CSF, approximate Kd from photoinsertion, read-out: half maximal photoinsertion): ~10 µM | saturation of photoinsertion ([2]; purified GS): 40 to 50 µM | amount of photo-incorporation on a mole to mole basis relative to [γ32P]8N3 ATP [3]: greater
Compound: [N-]=[N+]=Nc1nc(N)c2ncn([C@@H]3O[C@H](COP(=O)(O)OP(=O)(O)OP(=O)(O)O)[C@@H](O)[C@H]3O)c2n1 [2-azido-ATP, 2-azidoadenosine 5'-triphosphate]

Compound: [N-]=[N+]=Nc1nc2c(N)ncnc2n1[C@@H]1O[C@H](COP(=O)(O)OP(=O)(O)OP(=O)(O)O)[C@@H](O)[C@H]1O [8-azido-ATP, 8-azidoadenosine 5'-triphosphate]
Kd [1]: ~10 µM | saturation of photoinsertion ([1]; 42 kD protein in AD CSF): 40 to 50 µM | saturation of photoinsertion ([2]; purified GS): 40 to 50 µM

Compound: Nc1ncnc2c1ncn2[C@@H]1O[C@H](COP(=O)(O)OP(=O)(O)OP(=O)(O)O)[C@@H](O)[C@H]1O [ATP, adenosine triphosphate]
effect on photolabeling with 8- or 2-azido-ATP ([1]; 42 kD protein in AD CSF, competition by natural nucleotide): decreased the photolabeling | effect on photolabeling with 8- or 2-azido-ATP ([2]; purified GS, competition by natural nucleotide): decreased the photolabeling

Compound: [Cl][Mn][Cl] [MnCl2]
effect on enzymatic activity of glutamine synthetase (glutamine synthetase): increases the enzymatic activity | effect on photolabeling of GS by 8N3 ATP photolabel ([2]; purified sheep brain GS, 10 μM, FIG. 5): increases dramatically

Compound: O=C(O)O [ammonium bicarbonate]
enhancement of binding/photolabeling by [32P]2N3 ATP ([1]; 42 kD CSF protein, ligand added at 100 mM): about 5 fold | enhancement of binding/photolabeling by [32P]2N3 ATP ([2]; purified GS, ligand added at 100 mM): about 5 fold

Source: US5445937A, “Detection of Alzheimer's disease and other diseases using an improved photoaffinity labeling method” (The University of Kentucky Research Foundation, priority 1993, dated 1995)
